Consider two compounds from US8445502B2, “Pharmaceutical formulations comprising salts of a protein kinase inhibitor and methods of using same” (Astex Pharmaceuticals, Inc., priority 2007, dated 2013).

Molecules are shown by their SMILES. Like-named read-outs stand apart in the source and are kept apart here.

Data set [1] deals with SB-CL2 melanoma cells. Nature of the data set: SB-CL2 melanoma tumor model in athymic nude mice. Format: in vivo. The note with it: IP 50 & 75 mg/kg, qd × 5, TV-10. How it is done: (§1) MP470 and MP470 HCl were tested against different tumor types in athymic nude mice as summarized below (Table 8). Various formulations and routes were evaluated. HT-29 colorectal cancer cells and SB-CL2 melanoma cells were implanted subcutaneously, while A549 lung cancer cells, MiaPaCa-2 pancreatic cancer cells, TT medullary thyroid cancer cells, and OVCAR-3 ovarian cancer cells were implanted […] in the hind flank of mice. All animals were allowed to develop medium-sized (80-125 mg) tumors, before initiation of dosing. Tumor volume and mouse bodyweight were followed over the course of the study.

Data set [2] concerns HT-29 colorectal cancer cells. Format: in vivo. How it is done:
as §1
HT-29 Colorectal Model—Eighteen athymic nude mice were injected subcutaneously with HT-29 colorectal cancer cells. After tumor formation, animals received either 10 or 20 mg/kg MP470 by intraperitoneal (IP) injection using a qd5×2 wk schedule. On Day 5 of treatment, tumor growth rates in vehicle control animals were 19.5 mm3/d, while MP470-treated animals had tumor growth rates of 1.4 mm3/d (10 mg/kg) and −5.0 mm3/d (20 mg/kg). Tumor growth continued to decline throughout the 14 days of study. On Day 14, the tumor growth rates were 16.4 mm3/d (vehicle) compared to 4.3 mm3/d (10 mg/kg) and 5.5 mm3/d (20 mg/kg) in treated animals.

Data set [3] concerns DMS-114 SCLC cells. Briefly: Sensitization of SCLC cells to etoposide. The note with it: Homo sapiens; DMS-114, single agent. It is filed as cell-based. How it is done: (§2) Therefore, to determine if MP470 would increase sensitivity to etoposide treatment, SCLC cells were treated with the agents individually and in combination. […] Two sub-IC50 doses of MP470.HCl were tested in combination with etoposide to evaluate possible synergism and a resulting lower IC50 value for etoposide in each of the cell lines.

Data set [4] has as its system DMS-153 SCLC cells. Nature of the data set: Sensitization of SCLC cells to etoposide. Format: cell-based. The note with it: Homo sapiens; DMS-153, single agent. How it is done:
as §2

In data set [5] the test system is OVCAR-3 ovarian cancer cells. Briefly: OVCAR-3 ovarian cancer tumor model in nude mice. Format: in vivo. How it is done:
as §1
OVCAR-3 Ovarian Cancer Model—Forty-two nude mice were implanted subcutaneously with OVCAR-3 ovarian carcinoma, the hydrochloride salt of MP470 (MP470.HCl) was formulated in 100% corn oil and delivered orally. MP470.HCl, cisplatin, and irinotecan were administered to animals alone or in combination. When administered alone, MP470.HCl was given qd at 100 or 200 mg/kg, irinotecan was given q3d at 20 mg/kg, and cisplatin was given q7d at 5 mg/kg. In combination studies, 100 mg/kg MP470.HCl was given qd and combined with 20 mg/kg irinotecan given q3d or 5 mg/kg cisplatin given q7d. One animal in the 200 mg/kg MP470.HCl group died on Day 1, while five animals in the MP470.HCl/cisplatin combination group died (one on Day 5, Day 6, Day 7, Day, 20, and Day 27). Treatment with each individual agent (200 mg/kg MP470.HCl, 46.2 mm3/d; 20 mg/kg irinotecan, 38.53 mm3/d; 5 mg/kg cisplatin, 33.8 mm3/d) reduced the tumor growth rate below that of vehicle-treated mice (78.04 mm3/d). […] In contrast, when MP470.HCl and cisplatin were used in combination, the tumor growth rate was reduced to 10.22 mm3/d. However, the 100 mg/kg dose of MP470.HCl in combination with cisplatin caused enhanced toxicity and most animals in this group died during the 21-day treatment period. The enhanced toxicity was related to the level of the dose used, so a subsequent study was conducted using half the dose, 50 mg/kg/day as described below.

Data set [6] addresses PDGFRα (D842V) (h) (Homo sapiens, UniProt P16234, D842V). Briefly: Mutant kinase IC50 screen. It is filed as biochemical. How it is done: (§3) IC50 values for MP470.HCl were determined for four mutant c-Kit kinases, one mutant Flt3 kinase, and two mutant PDGFRα kinases.
Data set [7] has as its target PDGFRα (V561D) (h) (Homo sapiens, UniProt P16234, V561D). Briefly: Mutant kinase IC50 screen. It is filed as biochemical. How it is done:
as §3

The target in data set [8] is cKit (D816V) (h) (Homo sapiens, UniProt P10721, D816V). Nature of the data set: Mutant kinase IC50 screen. It is filed as biochemical. How it is done: as §3
Data set [9] concerns the target cKit (D816H) (h) (Homo sapiens, UniProt P10721, D816H). Nature of the data set: Mutant kinase IC50 screen. Format: biochemical. How it is done: as §3
The target of data set [10] is cKit (V654A) (h) (Homo sapiens, UniProt P10721, V654A). Briefly: Mutant kinase IC50 screen. Format: biochemical. How it is done: as §3
Data set [11] concerns the target Flt3 (D835Y) (h) (Homo sapiens, UniProt P36888, D835Y). Nature of the data set: Mutant kinase IC50 screen. Format: biochemical. How it is done: as §3

PDGFRα (D842V) (h), sequence (P16234 24-1089 D842V): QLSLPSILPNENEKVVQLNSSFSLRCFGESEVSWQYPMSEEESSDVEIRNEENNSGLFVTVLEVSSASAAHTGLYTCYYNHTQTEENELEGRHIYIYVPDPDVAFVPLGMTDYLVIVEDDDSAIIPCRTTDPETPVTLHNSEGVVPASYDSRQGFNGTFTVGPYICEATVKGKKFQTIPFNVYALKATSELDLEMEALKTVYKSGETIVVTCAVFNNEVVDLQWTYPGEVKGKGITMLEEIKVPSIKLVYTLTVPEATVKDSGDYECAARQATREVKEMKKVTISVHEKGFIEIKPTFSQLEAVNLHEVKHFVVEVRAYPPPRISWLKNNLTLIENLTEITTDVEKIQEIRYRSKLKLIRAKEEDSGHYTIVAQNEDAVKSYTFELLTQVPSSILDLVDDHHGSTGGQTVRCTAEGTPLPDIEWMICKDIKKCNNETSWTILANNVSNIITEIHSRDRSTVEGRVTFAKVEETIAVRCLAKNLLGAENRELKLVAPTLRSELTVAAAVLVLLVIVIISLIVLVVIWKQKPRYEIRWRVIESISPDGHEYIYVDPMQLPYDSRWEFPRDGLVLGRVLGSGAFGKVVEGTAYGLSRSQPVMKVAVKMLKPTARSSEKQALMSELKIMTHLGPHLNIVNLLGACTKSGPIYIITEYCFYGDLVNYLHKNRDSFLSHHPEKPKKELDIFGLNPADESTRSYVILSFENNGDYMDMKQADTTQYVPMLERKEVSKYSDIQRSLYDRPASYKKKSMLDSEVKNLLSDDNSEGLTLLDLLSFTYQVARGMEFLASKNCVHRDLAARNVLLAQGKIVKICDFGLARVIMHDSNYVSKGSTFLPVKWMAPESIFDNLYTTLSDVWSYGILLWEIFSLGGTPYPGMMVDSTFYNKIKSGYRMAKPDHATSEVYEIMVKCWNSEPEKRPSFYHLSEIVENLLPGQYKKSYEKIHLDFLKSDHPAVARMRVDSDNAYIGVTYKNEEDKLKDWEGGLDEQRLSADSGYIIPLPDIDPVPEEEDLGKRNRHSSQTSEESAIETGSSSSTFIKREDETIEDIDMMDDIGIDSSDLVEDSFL
cKit (D816V) (h), sequence (P10721 26-976 D816V): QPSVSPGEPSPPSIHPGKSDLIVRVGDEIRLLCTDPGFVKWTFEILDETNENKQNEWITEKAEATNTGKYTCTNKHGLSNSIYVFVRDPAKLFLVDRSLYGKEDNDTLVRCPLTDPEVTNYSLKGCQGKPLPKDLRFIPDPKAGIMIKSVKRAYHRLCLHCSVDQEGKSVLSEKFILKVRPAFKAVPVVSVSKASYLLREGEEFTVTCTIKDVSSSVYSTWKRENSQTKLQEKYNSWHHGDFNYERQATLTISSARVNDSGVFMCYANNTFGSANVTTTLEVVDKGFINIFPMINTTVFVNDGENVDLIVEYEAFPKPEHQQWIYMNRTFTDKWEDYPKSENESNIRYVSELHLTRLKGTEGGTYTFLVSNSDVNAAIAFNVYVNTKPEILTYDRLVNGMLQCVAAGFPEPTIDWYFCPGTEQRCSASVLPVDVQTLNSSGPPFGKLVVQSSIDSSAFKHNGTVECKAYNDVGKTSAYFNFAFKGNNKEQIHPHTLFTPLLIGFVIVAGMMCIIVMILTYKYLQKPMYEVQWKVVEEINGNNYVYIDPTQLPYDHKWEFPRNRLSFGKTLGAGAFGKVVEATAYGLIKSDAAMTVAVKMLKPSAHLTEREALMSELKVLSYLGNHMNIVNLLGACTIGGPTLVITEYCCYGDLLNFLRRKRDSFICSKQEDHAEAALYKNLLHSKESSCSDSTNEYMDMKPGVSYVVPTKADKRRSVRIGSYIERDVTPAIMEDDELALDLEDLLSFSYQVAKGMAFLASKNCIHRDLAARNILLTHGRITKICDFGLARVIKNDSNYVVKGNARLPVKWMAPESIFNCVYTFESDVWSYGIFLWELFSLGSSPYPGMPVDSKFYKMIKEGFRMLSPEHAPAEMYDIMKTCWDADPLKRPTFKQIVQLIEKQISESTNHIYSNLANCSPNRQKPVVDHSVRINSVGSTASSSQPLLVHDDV
cKit (D816H) (h), sequence (P10721 26-976 D816H): as the sequence (P10721 26-976 D816V) above, with V791H counted along it
PDGFRα (V561D) (h), sequence (P16234 24-1089 V561D): as the sequence (P16234 24-1089 D842V) above, with V538D, V819D counted along it
cKit (V654A) (h), sequence (P10721 26-976 V654A): as the sequence (P10721 26-976 D816V) above, with V629A, V791D counted along it

Regarding `S=C(NCc1ccc2c(c1)OCO2)N1CCN(c2ncnc3c2oc2ccccc23)CC1` [MP470, 4-[1]benzofuro[3,2-d]pyrimidin-4-yl-N-(1,3-benzodioxol-5-ylmethyl)piperazine-1-carbothioamide], the “Outcome: tumor growth” value is reported as “Dose dependency” in data set [1] and “tumor growth was slowed but not reversed” in data set [2] (HT-29 colon, IP 10, 20 mg/kg, (qd × 5) × 2 w, TV-13). In addition, the tumor growth rate in data set [2] (Day 5, 10 mg/kg IP qd5×2 wk (vehicle 19.5)) was 1.4 mm3/d; in data set [2] (Day 5, 20 mg/kg IP qd5×2 wk (vehicle 19.5)), −5.0 mm3/d; in data set [2] (Day 14, 10 mg/kg IP (vehicle 16.4)), 4.3 mm3/d; in [2] (Day 14, 20 mg/kg IP (vehicle 16.4)), 5.5 mm3/d.
Turning to `Cl.S=C(NCc1ccc2c(c1)OCO2)N1CCN(c2ncnc3c2oc2ccccc23)CC1` [MP470.HCl, 4-[1]benzofuro[3,2-d]pyrimidin-4-yl-N-(1,3-benzodioxol-5-ylmethyl)piperazine-1-carbothioamide hydrochloride], the 50% inhibitory concentration (IC50) was determined as 980 nM in data set [3]; 5140 nM in data set [4]; 0.081 µM in [6]; 0.04 µM in data set [7]; 0.95 µM in [8]; 0.01 µM in [9]. The 50% inhibitory concentration (IC50) in data set [10] is 0.127 µM; in data set [11], 8.05 µM. In addition, the animals that died entry in data set [5] (200 mg/kg MP470.HCl group, Day 1) is recorded as “One”. Also, in data set [5] (200 mg/kg qd oral in corn oil (vehicle 78.04)), the tumor growth rate is on record as 46.2 mm3/d. The “Outcome: tumor growth” value in data set [5] (OVCAR-3, PO 100 or 200 mg/kg, qd × 28, corn oil, hydrochloride) is recorded as “Dose dependency”.

In general, IC50 refers to the point on the concentration scale where inhibition reaches its midpoint.
